# Reference: patent US12564638B2 (SHANGHAITECH UNIVERSITY, priority 2019, dated 2026)
# pIC50: −log10 of the molar value. Where two headings read alike, the source gives them in different places.
# Experiments:
# Format in all cases: cell-based
# [1] = tested on: BT474 cells (HER2 positive breast cancer cells); experiment: Cell viability assay (CCK8), BT474 cells; conditions: Homo sapiens, BT-474, Table 10, BT474, 72 hours, read-out: IC50 (half inhibitory concentration)
# Excerpt: The cell lines with abnormal EGFR expression used are as follows: • HCC827 cells (EGFR Exon19 del, non-small cell lung cancer cells); • PC9 cells (EGFR Exon 19 del, non-small cell lung cancer cells); • PC9BracA1 (EGFR Exon 19 del+T790M, non-small cell lung cancer cells) • H1975 (EGFR Exon T790M+L858R mutation, non-small cell lung cancer cell line) • BT474 cells (HER2 positive breast cancer cells)
# All of the half inhibitory concentrations (IC50) of these compounds of the present invention were determined with WST reagent from Fuyuan Biotec Company. The specific experiment procedures are as follows: Cancer cells were planted in 96-well-plate at the density of 3 000 cells per well with 100 μL RPMI1640 completed culture medium. In the next day, compounds with indicated concentrations were added to the cells, DMSO was used as the negative control and the EGFR TKIs were used to treat cells as the positive groups. After 72 hours drug treatment, cell viability was measured by using the WST reagent following the instructions. The growth inhibition curve of the compounds on cells were plotted by Prism GraphPad, and the compounds IC50 calculated from it.
# The cell viability assays were taken to determine the anti-tumor activity of these indicated compounds in BT474 cells, which can overexpress HER2 protein. The cells were treated with the gradient concentration of these compounds (the maximum concentration: 10 μM; 3-fold dilution ratio, 10 concentration gradients) for 72 hours and then incubated with the CCK8 reagent to determine the cell viability.
# [2] = tested on: HCC827 cells (EGFR Exon19 del, non-small cell lung cancer cells); experiment: Cell viability assay (WST/CCK8), HCC827 cells; conditions: Homo sapiens, HCC827, 72 h, HCC827 (Exon19 Del), 72 hours, read-out: IC50 (half inhibitory concentration)
# Method in brief: (§1)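 Plated 3 000 cells/well in complete RPMI1640 the day before dosing; controls were DMSO (negative) and EGFR TKIs (positive).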
# [3] = tested on: PC9 cells (EGFR Exon 19 del, non-small cell lung cancer cells); experiment: Cell viability assay (WST/CCK8), PC9 cells; conditions: Homo sapiens, PC-9, PC9 (Exon19 Del), 72 hours, read-out: IC50 (half inhibitory concentration)
# Method in brief: as §1
# [4] = Table 6, canertinib-based compounds, WST
Compound,pIC50 ([2]; WST (CCK8)),pIC50 ([3]; WST (CCK8)),also measured
"COc1cc2ncnc(Nc3ccc(F)c(Cl)c3)c2cc1NC(=O)/C=C/CN1CCC(N2CCN(Cc3ccc(CNc4cccc5c4CN(C4CCC(=O)NC4=O)C5=O)cc3)CC2)CC1 (stereo not drawn) [SIAIS337024, (E)-N-(4-((3-chloro-4-fluorophenyl)amino)-7-methoxyquinazolin-6-yl)-4-(4-(4-(4-(((2-(2,6-dioxopiperidin-3-yl)-1-oxoisoindolin-4-yl)amino)methyl)benzyl)piperazin-1-yl)piperidin-1-yl)but-2-enamide]",8.96,7.89,pIC50 [1]: 7.29
"COc1cc2ncnc(Nc3ccc(F)c(Cl)c3)c2cc1NC(=O)/C=C/CN1CCC(N2CCN(C(=O)CCCCCNc3cccc4c3CN(C3CCC(=O)NC3=O)C4=O)CC2)CC1 (stereo not drawn) [SIAIS337035, (E)-N-(4-((3-chloro-4-fluorophenyl)amino)-7-methoxyquinazolin-6-yl)-4-(4-(4-(6-((2-(2,6-dioxopiperidin-3-yl)-1-oxoisoindolin-4-yl)amino)hexanoyl)piperazin-1-yl)piperidin-1-yl)but-2-enamide]",8.37,8.20,
"COc1cc2ncnc(Nc3ccc(F)c(Cl)c3)c2cc1NC(=O)/C=C/CN1CCC(N2CCN(CCCCCCSc3cccc4c3CN(C3CCC(=O)NC3=O)C4=O)CC2)CC1 (stereo not drawn) [SIAIS262065, (E)-N-(4-((3-chloro-4-fluorophenyl)amino)-7-methoxyquinazolin-6-yl)-4-(4-(4-(6-((2-(2,6-dioxopiperidin-3-yl)-1-oxoisoindolin-4-yl)thio)hexyl)piperazin-1-yl)piperidin-1-yl)but-2-enamide]",8.51,6.73,
"COc1cc2ncnc(Nc3ccc(F)c(Cl)c3)c2cc1NC(=O)/C=C/CN1CCC(N2CCN(CCCCCSc3cccc4c3CN(C3CCC(=O)NC3=O)C4=O)CC2)CC1 (stereo not drawn) [SIAIS262064, (E)-N-(4-((3-chloro-4-fluorophenyl)amino)-7-methoxyquinazolin-6-yl)-4-(4-(4-(5-((2-(2,6-dioxopiperidin-3-yl)-1-oxoisoindolin-4-yl)thio)pentyl)piperazin-1-yl)piperidin-1-yl)but-2-enamide]",,,pIC50 [1]: 8.73
"C=CC(=O)Nc1cc2c(Nc3ccc(F)c(Cl)c3)ncnc2cc1OCCCN1CCN(C(=O)CCC(=O)NCCNc2cccc3c2C(=O)N(C2CCC(=O)NC2=O)C3=O)CC1 (stereo not drawn) [SIAIS249100, 4-(4-(3-((6-acrylamido-4-((3-chloro-4-fluorophenyl)amino)quinazolin-7-yl)oxy)propyl)piperazin-1-yl)-N-(2-((2-(2,6-dioxopiperidin-3-yl)-1,3-dioxoisoindolin-4-yl)amino)ethyl)-4-oxobutanamide]",,,"pIC50 [2, 4]: 7.39; pIC50 [3, 4]: 7.05"
"COc1cc2ncnc(Nc3ccc(F)c(Cl)c3)c2cc1NC(=O)/C=C/CN1CCC(NC(=O)CCCSc2cccc3c2CN(C2CCC(=O)NC2=O)C3=O)CC1 (stereo not drawn) [SIAIS262112, (E)-N-(4-((3-chloro-4-fluorophenyl)amino)-7-methoxyquinazolin-6-yl)-4-(4-(4-((2-(2,6-dioxopiperidin-3-yl)-1-oxoisoindolin-4-yl)thio)butanamido)piperidin-1-yl)but-2-enamide]",7.85,7.37,
"COc1cc2ncnc(Nc3ccc(F)c(Cl)c3)c2cc1OCCCN1CCN(C(=O)COCCSc2cccc3c2C(=O)N(C2CCC(=O)NC2=O)C3=O)CC1 (stereo not drawn) [SIAIS184168, 4-((2-(2-(4-(3-((4-((3-chloro-4-fluorophenyl)amino)-7-methoxyquinazolin-6-yl)oxy)propyl)piperazin-1-yl)-2-oxoethoxy)ethyl)thio)-2-(2,6-dioxopiperidin-3-yl)isoindoline-1,3-dione]",,,"pIC50 ([2]; Table 4, gefitinib and sapitinib-based compounds, WST): 7.37; pIC50 ([3]; Table 4, gefitinib-based compounds, WST): 6.50"
"COc1cc2ncnc(Nc3ccc(F)c(Cl)c3)c2cc1NC(=O)/C=C/CN1CCN(C(=O)CSc2cccc3c2C(=O)N(C2CCC(=O)NC2=O)C3=O)CC1 (stereo not drawn) [SIAIS249034, (E)-N-(4-((3-chloro-4-fluorophenyl)amino)-7-methoxyquinazolin-6-yl)-4-(4-(2-((2-(2,6-dioxopiperidin-3-yl)-1,3-dioxoisoindolin-4-yl)thio)acetyl)piperazin-1-yl)but-2-enamide]",7.64,6.78,
"COc1cc2ncnc(Nc3ccc(F)c(Cl)c3)c2cc1NC(=O)/C=C/CN1CCN(C(=O)CCCCCCNc2cccc3c2C(=O)N(C2CCC(=O)NC2=O)C3=O)CC1 (stereo not drawn) [SIAIS262015, (E)-N-(4-((3-chloro-4-fluorophenyl)amino)-7-methoxyquinazolin-6-yl)-4-(4-(7-((2-(2,6-dioxopiperidin-3-yl)-1,3-dioxoisoindolin-4-yl)amino)heptanoyl)piperazin-1-yl)but-2-enamide]",8.52,7.92,
"COc1cc2ncnc(Nc3ccc(F)c(Cl)c3)c2cc1NC(=O)/C=C/CN1CCC(N2CCN(C(=O)CCCCOc3cccc4c3CN(C3CCC(=O)NC3=O)C4=O)CC2)CC1 (stereo not drawn) [SIAIS337026, (E)-N-(4-((3-chloro-4-fluorophenyl)amino)-7-methoxyquinazolin-6-yl)-4-(4-(4-(5-((2-(2,6-dioxopiperidin-3-yl)-1-oxoisoindolin-4-yl)oxy)pentanoyl)piperazin-1-yl)piperidin-1-yl)but-2-enamide]",9.30,8.07,
"COc1cc2ncnc(Nc3ccc(F)c(Cl)c3)c2cc1NC(=O)/C=C/CN1CCC(N2CCN(CCCCCCOc3cccc4c3CN(C3CCC(=O)NC3=O)C4=O)CC2)CC1 (stereo not drawn) [SIAIS337029, (E)-N-(4-((3-chloro-4-fluorophenyl)amino)-7-methoxyquinazolin-6-yl)-4-(4-(4-(6-((2-(2,6-dioxopiperidin-3-yl)-1-oxoisoindolin-4-yl)oxy)hexyl)piperazin-1-yl)piperidin-1-yl)but-2-enamide]",9.52,7.55,
"COc1cc2ncnc(Nc3ccc(F)c(Cl)c3)c2cc1NC(=O)/C=C/CN1CCC(N2CCN(C(=O)CCc3cccc4c3CN(C3CCC(=O)NC3=O)C4=O)CC2)CC1 (stereo not drawn) [SIAIS262052, (E)-N-(4-((3-chloro-4-fluorophenyl)amino)-7-methoxyquinazolin-6-yl)-4-(4-(4-(3-(2-(2,6-dioxopiperidin-3-yl)-1-oxoisoindolin-4-yl)propanoyl)piperazin-1-yl)piperidin-1-yl)but-2-enamide]",8.85,8.89,
"COc1cc2ncnc(Nc3ccc(F)c(Cl)c3)c2cc1NC(=O)/C=C/CN1CCC(N2CCN(Cc3ccc(CSc4cccc5c4CN(C4CCC(=O)NC4=O)C5=O)cc3)CC2)CC1 (stereo not drawn) [SIAIS337021, (E)-N-(4-((3-chloro-4-fluorophenyl)amino)-7-methoxyquinazolin-6-yl)-4-(4-(4-(4-(((2-(2,6-dioxopiperidin-3-yl)-1-oxoisoindolin-4-yl)thio)methyl)benzyl)piperazin-1-yl)piperidin-1-yl)but-2-enamide]",8.89,7.13,
"COc1cc2ncnc(Nc3ccc(F)c(Cl)c3)c2cc1NC(=O)/C=C/CN1CCC(N2CCN(C(=O)CCc3ccc(CCC(=O)N[C@H](C(=O)N4C[C@H](O)C[C@H]4C(=O)NCc4ccc(-c5scnc5C)cc4)C(C)(C)C)cc3)CC2)CC1 [SIAIS249106, (2S,4R)-1-((S)-2-(3-(4-(3-(4-(1-((E)-4-((4-((3-chloro-4-fluorophenyl)amino)-7-methoxyquinazolin-6-yl)amino)-4-oxobut-2-en-1-yl)piperidin-4-yl)piperazin-1-yl)-3-oxopropyl)phenyl)propanamido)-3,3-dimethylbutanoyl)-4-hydroxy-N-(4-(4-methylthiazol-5-yl)benzyl)pyrrolidine-2-carboxamide]",7.79,7.30,
"COc1cc2ncnc(Nc3ccc(F)c(Cl)c3)c2cc1NC(=O)/C=C/CN1CCN(C(=O)CCSc2cccc3c2CN(C2CCC(=O)NC2=O)C3=O)CC1 (stereo not drawn) [SIAIS219186, (E)-N-(4-((3-chloro-4-fluorophenyl)amino)-7-methoxyquinazolin-6-yl)-4-(4-(3-((2-(2,6-dioxopiperidin-3-yl)-1-oxoisoindolin-4-yl)thio)propanoyl)piperazin-1-yl)but-2-enamide]",8.22,7.66,
